Test results taken from article PMC10709440, “High-throughput ligand profile characterization in novel cell lines expressing seven heterologous insect olfactory receptors for the detection of volatile plant biomarkers” (Scientific Reports, 2023).
Where two headings read alike, the source gives them in different places.

Key:
Drosophila OR47a = target: T1, Drosophila OR47a (Drosophila melanogaster, UniProt P81921); experiment: Calcium ion fluorescence (GCaMP6) assay, OR47a stable HEK293 cell line; type: cell-based; settings: for Average response / OR47a response (VUAA1-normalized) at 1 μM / OR47a response (VUAA1-normalized) at 10 μM / OR47a response (VUAA1-normalized) at 100 μM: OR47a cell line; for Average response: mean of biological replicates
T1 construct: expressed in transfected cells
T1 sequence (P81921 1-385): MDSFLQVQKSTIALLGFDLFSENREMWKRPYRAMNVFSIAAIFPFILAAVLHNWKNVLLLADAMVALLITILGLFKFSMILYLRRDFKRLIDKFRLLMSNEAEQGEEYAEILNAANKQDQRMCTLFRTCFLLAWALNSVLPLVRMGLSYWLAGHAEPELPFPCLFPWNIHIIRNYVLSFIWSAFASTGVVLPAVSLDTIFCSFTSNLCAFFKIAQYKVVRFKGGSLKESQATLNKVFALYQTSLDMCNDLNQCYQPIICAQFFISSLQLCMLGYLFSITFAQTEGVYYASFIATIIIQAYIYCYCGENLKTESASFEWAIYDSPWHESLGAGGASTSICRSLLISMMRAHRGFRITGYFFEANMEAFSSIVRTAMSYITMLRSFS
T1 sequence (Q9VNB5 1-486 partner): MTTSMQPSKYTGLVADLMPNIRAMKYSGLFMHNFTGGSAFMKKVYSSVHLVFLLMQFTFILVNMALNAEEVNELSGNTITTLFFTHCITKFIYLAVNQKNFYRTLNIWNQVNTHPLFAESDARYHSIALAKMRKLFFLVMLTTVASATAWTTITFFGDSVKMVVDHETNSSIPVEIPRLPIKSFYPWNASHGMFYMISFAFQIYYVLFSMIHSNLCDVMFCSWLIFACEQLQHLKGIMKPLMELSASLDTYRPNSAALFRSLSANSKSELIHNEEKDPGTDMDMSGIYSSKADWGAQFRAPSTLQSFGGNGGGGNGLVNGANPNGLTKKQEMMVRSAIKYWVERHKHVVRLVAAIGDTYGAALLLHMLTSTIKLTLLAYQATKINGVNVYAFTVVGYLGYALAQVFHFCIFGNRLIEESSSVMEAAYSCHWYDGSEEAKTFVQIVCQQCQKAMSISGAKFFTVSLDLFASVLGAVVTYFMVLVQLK
In short: (§1)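 Responses are VUAA1-normalized ΔF: each VOC-evoked calcium signal, (FMAX−F0)/F0 over 30 s after injection, divided by the same line's mean 50 µM VUAA1 response. Cells were doxycycline-induced HEK293 with GCaMP6 and the cognate Drosophila OR, in HEPES buffer pH 7.3; ligands tested 0.01–100 μM.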

Drosophila OR10a = target: T2, Drosophila OR10a (Drosophila melanogaster, UniProt Q9VYZ1); experiment: Calcium ion fluorescence (GCaMP6) assay, OR10a stable HEK293 cell line; type: cell-based; settings: for OR10a response (VUAA1-normalized) at 1 μM / OR10a response (VUAA1-normalized) at 10 μM / OR10a response (VUAA1-normalized) at 100 μM: OR10a cell line
T2 construct: expressed in transfected cells
T2 sequence (Q9VYZ1 1-406): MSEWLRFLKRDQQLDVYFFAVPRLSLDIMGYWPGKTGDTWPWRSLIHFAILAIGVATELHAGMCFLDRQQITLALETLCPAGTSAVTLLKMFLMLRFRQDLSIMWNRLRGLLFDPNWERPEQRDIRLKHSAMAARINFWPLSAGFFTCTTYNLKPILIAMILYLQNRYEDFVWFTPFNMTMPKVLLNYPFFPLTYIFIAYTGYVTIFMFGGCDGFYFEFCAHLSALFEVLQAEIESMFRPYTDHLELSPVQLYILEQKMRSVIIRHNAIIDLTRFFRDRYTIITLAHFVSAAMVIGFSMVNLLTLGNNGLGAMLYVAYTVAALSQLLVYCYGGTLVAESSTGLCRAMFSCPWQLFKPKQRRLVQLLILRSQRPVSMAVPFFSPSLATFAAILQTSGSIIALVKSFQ
T2 sequence (Q9VNB5 1-486 partner): T1 sequence (Q9VNB5 1-486 partner)
In short: as §1

[1] = HEK293, read-out: OR47a response (VUAA1-normalized response)
[2] = concentration 1, normalized fluorescence change, values below 0.05 threshold given as 0
[3] = concentration 10, normalized fluorescence change, values below 0.05 threshold given as 0
[4] = concentration 100, normalized fluorescence change, values below 0.05 threshold given as 0
[5] = HEK293, 1 μM VOC, 50 μM VUAA1 = 1, responses not exceeding 0.05 considered 0, read-out: OR10a Average response (VUAA1-normalized)
[6] = HEK293, 10 μM VOC, 50 μM VUAA1 = 1, responses not exceeding 0.05 considered 0, read-out: OR10a Average response (VUAA1-normalized)
[7] = HEK293, 100 μM VOC, 50 μM VUAA1 = 1, responses not exceeding 0.05 considered 0, read-out: OR10a Average response (VUAA1-normalized)
[8] = ligand concentration 1 (unit not given), 0.05 threshold, values below shown as 0
[9] = ligand concentration 10 (unit not given), 0.05 threshold, values below shown as 0
[10] = ligand concentration 100 (unit not given), 0.05 threshold, values below shown as 0

Cc1ccc(C)c(C)c1 [1,2,4-trimethylbenzene]
activation at 1 µM (Drosophila OR47a; [1]): 0% | activation at 10 µM (Drosophila OR47a; [1]): 0% | activation at 100 µM (Drosophila OR47a; [1]): 0% | Average response (Drosophila OR47a; odorant cc. 1 µM): 0.00 | Average response (Drosophila OR47a; odorant cc. 10 µM): 0.00 | Average response (Drosophila OR47a; odorant cc. 100 µM): 0.00 | DF norm AVERAGE OR47a (Drosophila OR47a; [2]): 0 | DF norm AVERAGE OR47a (Drosophila OR47a; [3]): 0 | DF norm AVERAGE OR47a (Drosophila OR47a; [4]): 0 | activation at 1 µM (Drosophila OR10a; [5]): 7% | activation at 10 µM (Drosophila OR10a; [6]): 0% | activation at 100 µM (Drosophila OR10a; [7]): 2.53% | activation at 1 µM (Drosophila OR10a; HEK293, read-out: OR10a response (VUAA1-normalized response), VOC concentration 1 μM): 7% | activation at 10 µM (Drosophila OR10a; HEK293, read-out: OR10a response (VUAA1-normalized response), VOC concentration 10 μM): 0% | activation at 100 µM (Drosophila OR10a; HEK293, read-out: OR10a response (VUAA1-normalized response), VOC concentration 100 μM): 0%

C=C(C)C1CCC2(C)OC2C1 (single isomer, unassigned; (+)) [(+)-limonene oxide]
Average response (Drosophila OR47a; odorant cc. 1 µM): 0.00 | Average response (Drosophila OR47a; odorant cc. 10 µM): 0.00 | Average response (Drosophila OR47a; odorant cc. 100 µM): 0.00 | OR47a response (VUAA1-normalized response) (Drosophila OR47a; VOC concentration 1 μM): 0.00 | OR47a response (VUAA1-normalized response) (Drosophila OR47a; VOC concentration 10 μM): 0.00 | OR47a response (VUAA1-normalized response) (Drosophila OR47a; VOC concentration 100 μM): 0.00 | DF norm AVERAGE OR47a (Drosophila OR47a; [2]): 0 | DF norm AVERAGE OR47a (Drosophila OR47a; [3]): 0 | DF norm AVERAGE OR47a (Drosophila OR47a; [4]): 0 | DF norm AVERAGE OR10a (Drosophila OR10a): 0 | OR10a Average response (VUAA1-normalized) (Drosophila OR10a; 1 μM VOC, 50 μM VUAA1 = 1, responses not exceeding 0.05 considered 0): 0.00 | OR10a Average response (VUAA1-normalized) (Drosophila OR10a; 10 μM VOC, 50 μM VUAA1 = 1, responses not exceeding 0.05 considered 0): 0.02 | OR10a Average response (VUAA1-normalized) (Drosophila OR10a; 100 μM VOC, 50 μM VUAA1 = 1, responses not exceeding 0.05 considered 0): 0.00 | OR10a response (VUAA1-normalized response) (Drosophila OR10a; VOC concentration 1 μM): 0.00 | OR10a response (VUAA1-normalized response) (Drosophila OR10a; VOC concentration 10 μM): 0.00 | OR10a response (VUAA1-normalized response) (Drosophila OR10a; VOC concentration 100 μM): 0.00

CC/C=C\CCO [Z-3-hexenol]
OR47a response (VUAA1-normalized) at 1 μM (Drosophila OR47a; VOC concentration 1 μM): 0.00 | OR47a response (VUAA1-normalized) at 10 μM (Drosophila OR47a; VOC concentration 10 μM): 0.0571 | OR47a response (VUAA1-normalized) at 100 μM (Drosophila OR47a; VOC concentration 100 μM): 0.10 | OR10a response (VUAA1-normalized) at 1 μM (Drosophila OR10a; VOC concentration 1 μM): 0.17 | OR10a response (VUAA1-normalized) at 10 μM (Drosophila OR10a; VOC concentration 10 μM): 0.19 | OR10a response (VUAA1-normalized) at 100 μM (Drosophila OR10a; VOC concentration 100 μM): 0.10

CCCCCCCCCCC [undecane]
OR47a response (VUAA1-normalized) at 1 μM (Drosophila OR47a; VOC concentration 1 μM): 0.00 | OR47a response (VUAA1-normalized) at 10 μM (Drosophila OR47a; VOC concentration 10 μM): 0.00 | OR47a response (VUAA1-normalized) at 100 μM (Drosophila OR47a; VOC concentration 100 μM): 0.00 | Average response (Drosophila OR47a; odorant cc. 1 µM): 0.00 | Average response (Drosophila OR47a; odorant cc. 10 µM): 0.00 | Average response (Drosophila OR47a; odorant cc. 100 µM): 0.00 | DF norm AVERAGE OR47a (Drosophila OR47a; [8]): 0 | DF norm AVERAGE OR47a (Drosophila OR47a; [9]): 0 | DF norm AVERAGE OR47a (Drosophila OR47a; [10]): 0 | activation at 1 µM (Drosophila OR10a; [5]): 0% | activation at 10 µM (Drosophila OR10a; [6]): 0% | activation at 100 µM (Drosophila OR10a; [7]): 0% | OR10a response (VUAA1-normalized) at 1 μM (Drosophila OR10a; VOC concentration 1 μM): 0.00 | OR10a response (VUAA1-normalized) at 10 μM (Drosophila OR10a; VOC concentration 10 μM): 0.00 | OR10a response (VUAA1-normalized) at 100 μM (Drosophila OR10a; VOC concentration 100 μM): 0.00 | DF norm AVERAGE OR10a (Drosophila OR10a; [8]): 0 | DF norm AVERAGE OR10a (Drosophila OR10a; [9]): 0 | DF norm AVERAGE OR10a (Drosophila OR10a; [10]): 0
